The values that follow come from patent publication US20240148821A1, “PHARMACEUTICAL USE OF CYCLIC PEPTIDE COMPOUND” (CHUGAI SEIYAKU KABUSHIKI KAISHA, priority 2021, published 2024).

Numbered stars: 1 amine (or outer) side, 2 acyl side, 3 side chain; on linkers, the order of the positions; unused ones are H or OH. Bridge positions count the residues as written; N and C are the ends. Square brackets hold non-standard residues; d marks the D form. Peptide text beside a SMILES is read from it. * marks the point of attachment. hPhe(3-Cl-4-CF3) = N[C@@H](CCc1ccc(C(F)(F)F)c(Cl)c1)C(=O)O; NEtPhe(4-CF3) = CCN[C@@H](Cc1ccc(C(F)(F)F)cc1)C(=O)O; hPhe(4-CF3) = N[C@@H](CCc1ccc(C(F)(F)F)cc1)C(=O)O; NMePhe(4-Cl) = CN[C@@H](Cc1ccc(Cl)cc1)C(=O)O; hPhe(4-Cl) = N[C@@H](CCc1ccc(Cl)cc1)C(=O)O; NMedβ3hAla = C[C@H](CC(=O)[*:2])N(C)[*:1]; NMeGly(cPent) = CN[C@H](C(=O)O)C1CCCC1; Phe(4-Me) = Cc1ccc(C[C@H](N)C(=O)O)cc1; Pro(4,4-F2) = O=C(O)[C@@H]1CC(F)(F)CN1; NMeCha = CN[C@@H](CC1CCCCC1)C(=O)O; Azetidine(3,3-F2) = FC1(F)CN(*)C1; NMehLeu = CN[C@@H](CCC(C)C)C(=O)O; Hyp = O=C(O)[C@@H]1C[C@@H](O)CN1; NEtLeu = CCN[C@@H](CC(C)C)C(=O)O; NMeChg = CN[C@H](C(=O)O)C1CCCCC1; NMeI = CC[C@H](C)[C@H](NC)C(=O)O; NMeT = CN[C@H](C(=O)O)[C@@H](C)O; NMeE = CN[C@@H](CCC(=O)O)C(=O)O; NMeD = CN[C@@H](CC(=O)O)C(=O)O; NMeL = CN[C@@H](CC(C)C)C(=O)O; NMeV = CN[C@H](C(=O)O)C(C)C; d(β3hA) = C[C@@H](N)CC(=O)O; Azetidin(1-yl) = C1CN(*)C1; NMeS = CN[C@@H](CO)C(=O)O; Morpholide = C1CN(*)CCO1; NMeA = CN[C@@H](C)C(=O)O; Piperidide = C1CCN(*)CC1; Ac5c = NC1(C(=O)O)CCCC1; Aze = O=C(O)[C@@H]1CCN1; Ethyl(2,2-F2) = FC(F)C*; Ac4c = NC1(C(=O)O)CCC1; CH2CMe2OH = CC(C)(O)C*; NBuGly = CCCCNCC(=O)O; Aib = CC(C)(N)C(=O)O; Sar = CNCC(=O)O

This test deals with protein-protein interaction between Kras and SOS1 (biotin-tagged human Kras loaded with GDP, His-tagged human SOS1) (Homo sapiens (Human), UniProt P01116, G12D). As to the kind of experiment: Protein-protein interaction inhibition between Kras and SOS1 (KrasG12D-SOS PPI) using AlphaScreen.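 Note: kras produced in E. coli, Ni-coupled donor beads and streptavidin acceptor beads, excitation 680 nm with emission detected at 520–620 nm via singlet oxygen transfer.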 Conditions: AlphaScreen; biotin-tagged human Kras loaded with GDP, His-tagged human SOS1; read-out: KRAS G12D-SOS PPI IC50. Type of test: biochemical.
One may read the IC50 as the concentration that gives 50% inhibition. For the compound `CC[C@H](C)[C@@H]1NC(=O)[C@H](CC(C)C)N(C)C(=O)C[C@@H](C(=O)N2CCCCC2)N(C)C(=O)[C@H](C(C)C)N(C)C(=O)C2(CCCC2)NC(=O)[C@@H]2CCCN2C(=O)[C@H](CCc2ccc(Cl)cc2)NC(=O)CN(C)C(=O)[C@H](CC2CCCCC2)N(C)C(=O)CN(C)C(=O)[C@@H]2CCCN2C1=O` [Compound 530] ([NMeL]IP[Sar][NMeCha][Sar][hPhe(4-Cl)]P[Ac5c][NMeV][NMeD]-Piperidide; lactam N-11), the 50% inhibitory concentration (IC50) was 140 nM.

Consider `CC[C@H](C)[C@@H]1NC(=O)[C@H](CC(C)C)N(C)C(=O)C[C@@H](C(=O)N2CCCCC2)N(C)C(=O)[C@H](C2CCCCC2)N(C)C(=O)C2(CCCC2)NC(=O)[C@@H]2C[C@@H](OCC(F)F)CN2C(=O)[C@H](CCc2ccc(C(F)(F)F)c(Cl)c2)NC(=O)CN(C)C(=O)[C@H](CC2CCCCC2)N(C)C(=O)CN(C)C(=O)CN(C)C1=O` [Compound 2119] ([NMeL]I[Sar][Sar][NMeCha][Sar][hPhe(3-Cl-4-CF3)][Hyp](Ethyl(2,2-F2))[Ac5c][NMeChg][NMeD]-Piperidide; lactam N-11), for which the half-inhibitory concentration (IC50) was determined as 0.39 nM. The same measure for `CC[C@H](C)[C@@H]1NC(=O)[C@H](CC(C)C)N(C)C(=O)C[C@@H](C)NC(=O)[C@H](C(C)C)N(C)C(=O)C2(CCCC2)NC(=O)[C@@H]2CCCN2C(=O)[C@H](CCc2ccc(C(F)(F)F)c(Cl)c2)NC(=O)CN(C)C(=O)[C@H](CC2CCCCC2)N(C)C(=O)[C@@H]2CCN2C(=O)[C@H](COCC(C)(C)O)N(C)C1=O` [Compound 1122] (cyclo([Ac5c][NMeV][d(β3hA)][NMeL]I[NMeS](CH2CMe2OH)[Aze][NMeCha][Sar][hPhe(3-Cl-4-CF3)]P)): 67 nM; for `CC[C@H](C)[C@@H]1NC(=O)[C@H](CC(C)C)N(C)C(=O)C[C@@H](C)N(C)C(=O)[C@H](C2CCCCC2)N(C)C(=O)C2(CCC2)NC(=O)[C@@H]2CC(F)(F)CN2C(=O)[C@H](CCc2ccc(C(F)(F)F)c(Cl)c2)NC(=O)CN(C)C(=O)[C@H](Cc2ccc(C(F)(F)F)cc2)N(CC)C(=O)[C@@H]2CCN2C(=O)[C@H](C)N(C)C1=O` [Compound 345] (cyclo([Ac4c][NMeChg][NMedβ3hAla][NMeL]I[NMeA][Aze][NEtPhe(4-CF3)][Sar][hPhe(3-Cl-4-CF3)][Pro(4,4-F2)])): 58 nM. The same measure for `CC[C@H](C)[C@@H]1NC(=O)[C@H](CC(C)C)N(C)C(=O)C[C@@H](C)NC(=O)[C@H](C(C)C)N(C)C(=O)C2(CCCC2)NC(=O)[C@@H]2CCCN2C(=O)[C@H](CCc2ccc(C(F)(F)F)c(Cl)c2)NC(=O)CN(C)C(=O)[C@H](CC2CCCCC2)N(C)C(=O)[C@@H]2CCN2C(=O)[C@H](CC(C)C)N(C)C1=O` [Compound 1619] (cyclo([Ac5c][NMeV][d(β3hA)][NMeL]I[NMeL][Aze][NMeCha][Sar][hPhe(3-Cl-4-CF3)]P)): 360 nM. With `CC[C@H](C)[C@@H]1NC(=O)[C@H](CC(C)C)N(C)C(=O)C[C@@H](C(=O)N2CCCCC2)N(C)C(=O)[C@H](C(C)C)N(C)C(=O)C2(CCCC2)NC(=O)[C@@H]2CCCN2C(=O)[C@H](CCc2ccc(C(F)(F)F)c(Cl)c2)NC(=O)CN(C)C(=O)[C@H](Cc2ccc(Cl)cc2)N(C)C(=O)[C@@H]2CCN2C(=O)[C@H](C)N(C)C1=O` [Compound 680] ([NMeL]I[NMeA][Aze][NMePhe(4-Cl)][Sar][hPhe(3-Cl-4-CF3)]P[Ac5c][NMeV][NMeD]-Piperidide; lactam N-11) the figure was 9.9 nM. As to `CC[C@H](C)[C@@H]1NC(=O)[C@H](CC(C)C)N(C)C(=O)C[C@@H](C(=O)N2CCCCC2)N(C)C(=O)[C@H](C(C)C)N(C)C(=O)C2(CCCC2)NC(=O)[C@@H]2CCCN2C(=O)[C@H](CCc2ccc(C(F)(F)F)c(Cl)c2)NC(=O)CN(C)C(=O)[C@H](CC2CCCCC2)N(C)C(=O)[C@@H]2CCN2C(=O)[C@H]([C@@H](C)O)N(C)C1=O` [Compound 496] ([NMeL]I[NMeT][Aze][NMeCha][Sar][hPhe(3-Cl-4-CF3)]P[Ac5c][NMeV][NMeD]-Piperidide; lactam N-11), the half-inhibitory concentration (IC50) turned out to be 10 nM. With `CC[C@H](C)[C@@H]1NC(=O)[C@H](C(C)C)N(C)C(=O)C[C@@H](C(=O)N2CCCCC2)N(C)C(=O)[C@H](C(C)C)N(C)C(=O)C2(CCCC2)NC(=O)[C@@H]2CCCN2C(=O)[C@H](CCc2ccc(C(F)(F)F)c(Cl)c2)NC(=O)CN(C)C(=O)[C@H](CC2CCCCC2)N(C)C(=O)[C@@H]2CCN2C(=O)[C@H](C)N(C)C1=O` [Compound 1767] ([NMeV]I[NMeA][Aze][NMeCha][Sar][hPhe(3-Cl-4-CF3)]P[Ac5c][NMeV][NMeD]-Piperidide; lactam N-11) the figure was 7.2 nM; with `CC[C@H](C)[C@@H]1NC(=O)[C@H](CC(C)C)N(C)C(=O)C[C@@H](C(=O)N(C)C)N(C)C(=O)[C@H]([C@@H](C)CC)N(C)C(=O)[C@H](C(C)C)NC(=O)[C@@H]2CCCN2C(=O)[C@H](CCc2ccc(C(F)(F)F)c(Cl)c2)NC(=O)CN(C)C(=O)[C@H](Cc2ccc(C)cc2)NC(=O)[C@@H]2CCN2C(=O)[C@H](C)N(C)C1=O` [Compound 660] ([NMeL]I[NMeA][Aze][Phe(4-Me)][Sar][hPhe(3-Cl-4-CF3)]PV[NMeI][NMeD]-NMe2; lactam N-11), 210 nM; with `CC[C@H](C)[C@@H]1NC(=O)[C@H](C(C)C)N(C)C(=O)C[C@@H](C(=O)N2CCCCC2)NC(=O)[C@H](CC(C)C)N(C)C(=O)C2(CCCC2)NC(=O)[C@H](CC(C)C)N(C)C(=O)[C@H](CCc2ccc(C(F)(F)F)cc2)NC(=O)CN(C)C(=O)[C@H](Cc2ccc(Cl)cc2)N(C)C(=O)CN(C)C(=O)CN(C)C1=O` [Compound 610] ([NMeV]I[Sar][Sar][NMePhe(4-Cl)][Sar][hPhe(4-CF3)][NMeL][Ac5c][NMeL]D-Piperidide; lactam N-11), 150 nM. With `CC[C@H](C)[C@@H]1NC(=O)[C@H](CCC(C)C)N(C)C(=O)C[C@@H](C(=O)N2CCCCC2)N(C)C(=O)[C@H](C(C)C)N(C)C(=O)C2(CCCC2)NC(=O)[C@@H]2CCCN2C(=O)[C@H](CCc2ccc(C(F)(F)F)c(Cl)c2)NC(=O)CN(C)C(=O)[C@H](CC2CCCCC2)N(C)C(=O)[C@@H]2CCN2C(=O)[C@H](C)N(C)C1=O` [Compound 1833] ([NMehLeu]I[NMeA][Aze][NMeCha][Sar][hPhe(3-Cl-4-CF3)]P[Ac5c][NMeV][NMeD]-Piperidide; lactam N-11) the figure was 7.5 nM; with `CC[C@H](C)[C@@H]1NC(=O)[C@H](C(C)C)N(C)C(=O)C[C@@H](C)NC(=O)[C@H](C(C)C)N(C)C(=O)C2(CCCC2)NC(=O)[C@H](CC(C)C)N(C)C(=O)[C@H](CCc2ccc(C(F)(F)F)c(Cl)c2)NC(=O)CN(C)C(=O)[C@H](Cc2ccc(Cl)cc2)N(C)C(=O)CN(C)C(=O)CN(C)C1=O` [Compound 1069] (cyclo([Ac5c][NMeV][d(β3hA)][NMeV]I[Sar][Sar][NMePhe(4-Cl)][Sar][hPhe(3-Cl-4-CF3)][NMeL])), 17 nM; with `CC[C@H](C)[C@@H]1NC(=O)[C@H](CC(C)C)N(C)C(=O)C[C@@H](C(=O)N2CCOCC2)N(C)C(=O)[C@H](C2CCCC2)N(C)C(=O)C2(CCCC2)NC(=O)[C@H](CCC(=O)N2CC(F)(F)C2)N(C)C(=O)[C@H](CCc2ccc(C(F)(F)F)c(Cl)c2)NC(=O)CN(C)C(=O)[C@H](CC2CCCCC2)N(C)C(=O)[C@@H]2CCN2C(=O)[C@H](C)N(C)C1=O` [Compound 2098] ([NMeL]I[NMeA][Aze][NMeCha][Sar][hPhe(3-Cl-4-CF3)][NMeE](Azetidine(3,3-F2))[Ac5c][NMeGly(cPent)][NMeD]-Morpholide; lactam N-11), 8 nM. The same measure for `CC[C@H](C)[C@@H]1NC(=O)[C@H](CC(C)C)N(CC)C(=O)C[C@@H](C(=O)N2CCC2)N(C)C(=O)[C@H](C2CCCC2)N(C)C(=O)C2(CCCC2)NC(=O)[C@@H]2CCCN2C(=O)[C@H](CCc2ccc(C(F)(F)F)c(Cl)c2)NC(=O)CN(C)C(=O)[C@H](CC2CCCCC2)N(C)C(=O)[C@@H]2CCN2C(=O)[C@H](C)N(C)C1=O` [Compound 1198] ([NEtLeu]I[NMeA][Aze][NMeCha][Sar][hPhe(3-Cl-4-CF3)]P[Ac5c][NMeGly(cPent)][NMeD]-{Azetidin(1-yl)}; lactam N-11): 1.2 nM; for `CC[C@H](C)[C@@H]1NC(=O)[C@H](CC(C)C)N(C)C(=O)C[C@@H](C)NC(=O)[C@H](C(C)C)N(C)C(=O)C2(CCCC2)NC(=O)[C@@H]2CCCN2C(=O)[C@H](CCc2ccc(C(F)(F)F)c(Cl)c2)NC(=O)CN(C)C(=O)[C@H](CC2CCCCC2)N(C)C(=O)[C@@H]2CCN2C(=O)[C@H](C)N(C)C1=O` [Compound 488, (5S,8S,11S,15R,18S,23aS,29S,35S,37aS)-8-((S)-sec-butyl)-29-(3-chloro-4-(trifluoromethyl)phenethyl)-35-(cyclohexylmethyl)-11-isobutyl-18-isopropyl-5,6,12,15,19,33,36-heptamethyldocosahydro-2H,4H-spiro[azeto[2,1-u]pyrrolo[2,1-i][1,4,7,10,13,16,19,22,25,28,31]undecaazacyclotetratriacontine-21,1′-cyclopentan]-4,7,10,13,17,20,23,28,31,34,37(14H,22H)-undecaone] (cyclo([Ac5c][NMeV][d(β3hA)][NMeL]I[NMeA][Aze][NMeCha][Sar][hPhe(3-Cl-4-CF3)]P)): 29 nM; for `CCCCN1CC(=O)N(C)[C@@H](Cc2ccc(Cl)cc2)C(=O)N(C)CC(=O)N[C@@H](CCc2ccc(C(F)(F)F)cc2)C(=O)N(C)[C@@H](CC(C)C)C(=O)NC(C)(C)C(=O)N(C)[C@@H](CC(C)C)C(=O)N[C@H](C)CC(=O)N(C)[C@@H](C)C(=O)N[C@@H]([C@@H](C)CC)C(=O)N(C)CC1=O` [Compound 602] (cyclo([Aib][NMeL][d(β3hA)][NMeA]I[Sar][NBuGly][NMePhe(4-Cl)][Sar][hPhe(4-CF3)][NMeL])): 280 nM.
